The subject of one experiment is IL-12 induced STAT4 phosphorlyation mediated by TYK2/JAK2. Briefly: IL-12 Induced pSTAT4 in Human PBMC. Type of experiment: cell-based. The note with it: 1.7 ng/mL IL-12 for 30 minutes. The essentials:
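Thawed human PBMC pre-incubated with compound 1 hr at 37° C (0.1% DMSO final), then stimulated 30 minutes with IL-12 at 1.7 ng/mL final. pSTAT4 and total STAT4 measured in cell lysates with MSD reagents.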
As for `CNc1cc(-c2cn(C(C)C)c3nnccc23)nc2c(C(=O)N[C@H]3CC[C@H]3O)cnn12` [Compound I-1000], the half-inhibitory concentration (IC50) (commonly the concentration that inhibits the measured activity by half) lay within 0.5 to 1 µM.
Molecule `CNc1cc(-c2cnc3n([C@H]4CCOC4)cccc2-3)nc2c(C(=O)N[C@H]3CC[C@@H]3OC)cnn12` [Compound I-1002] gave a half-inhibitory concentration (IC50) below 0.1 µM.
Take `CNc1cc(-c2cnc3n([C@@H]4CCOC4)cccc2-3)nc2c(C(=O)N[C@H]3CC[C@@H]3OC)cnn12` [Compound I-1004]: the IC50 is below 0.1 µM.
Turning to `CNc1cc(-c2cnc3n([C@@H]4CCOC4)cccc2-3)nc2c(C(=O)N[C@@H]3CC[C@H]3OC)cnn12` [Compound I-1005], the 50% inhibitory concentration (IC50) was in the range of 0.1 to 0.5 µM.
Consider `CO[C@H]1CC[C@@H]1NC(=O)c1cnn2c(N)cc(-c3cnc4n([C@H]5COC[C@@H]5OC)cccc3-4)nc12` [Compound I-1006], for which the IC50 is below 0.1 µM.
`CNc1cc(-c2cn(C(C)C)c3nnccc23)nc2c(C(=O)N[C@@H]3CC[C@H]3OC)cnn12` [Compound I-1009] displayed an IC50 below 0.1 µM.
Still for that read-out and setting: for `CO[C@H]1CC[C@@H]1NC(=O)c1cnn2c(N)cc(-c3cnc4n([C@@H]5COC[C@H]5OC)cccc3-4)nc12` [Compound I-1010] the value was 0.1 to 0.5 µM; for `CNc1cc(-c2cn([C@H]3CC(=O)N(C)C3)c3ncccc23)nc2c(C(=O)NC3CC[C@@H]3OC)cnn12` (stereo partly shown) [Compound I-1017], 0.1 to 0.5 µM; for `CNc1cc(-c2cn([C@@H]3CC(=O)N(C)C3)c3ncccc23)nc2c(C(=O)N[C@H]3CC[C@@H]3OC)cnn12` [Compound I-1022], 0.1 to 0.5 µM.
The molecule `CNc1cc(-c2cn([C@H]3CC(=O)N(C)C3)c3ncccc23)nc2c(C(=O)N[C@H]3CC[C@@H]3OC)cnn12` [Compound I-1024] returned an IC50 below 0.1 µM.
As for `CNc1cc(-c2cn([C@H]3CC(=O)N(C4CCOCC4)C3)c3ncccc23)nc2c(C(=O)NC3CC[C@@H]3OC)cnn12` (stereo partly shown) [Compound I-1027], the IC50 lay within 0.1 to 0.5 µM.
The same measure, in the same setting: for `CNc1cc(-c2cn([C@@H]3CC(=O)N(C4CCOCC4)C3)c3ncccc23)nc2c(C(=O)N[C@H]3CC[C@@H]3OC)cnn12` [Compound I-1028] the value was 0.1 to 0.5 µM; for `CNc1cc(-c2cn([C@H]3CC(=O)N(C4CCOCC4)C3)c3ncccc23)nc2c(C(=O)N[C@H]3CC[C@@H]3OC)cnn12` [Compound I-1030], 0.1 to 0.5 µM.

The same experiment, now with this note: 0.5 h, 1.7 ng/mL IL-12 for 30 minutes.
The molecule `CNc1cc(-c2cn([C@@H]3CC(=O)N(C)C3)c3ncccc23)nc2c(C(=O)NC3CC[C@@H]3OC)cnn12` (stereo partly drawn) [Compound I-1016, N-(2-methoxycyclobutyl)-5-(1-((R)-1-methyl-5-oxopyrrolidin-3-yl)-1H-pyrrolo[2,3-b]pyridin-3-yl)-7-(methylamino)pyrazolo[1,5-a]pyrimidine-3-carboxamide] registered a half-inhibitory concentration (IC50) of 0.1 to 0.5 µM.
Still for that read-out and setting: for `CNc1cc(-c2cn([C@H]3CO[C@@H](COC)C3)c3ncccc23)nc2c(C(=O)N[C@H]3CC[C@@H]3OC)cnn12` [Compound I-1018, N-((1S,2S)-2-methoxycyclobutyl)-5-(1-(5-(methoxymethyl)tetrahydrofuran-3-yl)-1H-pyrrolo[2,3-b]pyridin-3-yl)-7-(methylamino)pyrazolo[1,5-a]pyrimidine-3-carboxamide] the value was below 0.1 µM.
With `CNc1cc(-c2cn([C@@H]3CC(=O)N(C4CCOCC4)C3)c3ncccc23)nc2c(C(=O)NC3CC[C@@H]3OC)cnn12` (stereo partly drawn) [Compound I-1026, N-(2-methoxycyclobutyl)-7-(methylamino)-5-(1-((R)-5-oxo-1-(tetrahydro-2H-pyran-4-yl)pyrrolidin-3-yl)-1H-pyrrolo[2,3-b]pyridin-3-yl)pyrazolo[1,5-a]pyrimidine-3-carboxamide], the half-inhibitory concentration (IC50) is 0.1 to 0.5 µM.

Source of the values: patent US11414431B2, “Substituted pyrazolo[1,5-a]pyrimidines as TYK2 inhibitors” (Nimbus Lakshmi, Inc., priority 2018, dated 2022).
